Data published in patent US9815847B2 (Icahn School of Medicine at Mount Sinai, priority 2013, dated 2017).

Columns and labels:
[1] = test system: K562; assay: Cytotoxicity on K562 cancer cell line; type: cell-based; settings: Homo sapiens; K562 chronic myelogenous leukemia; 96 h; 0.01-100 μM
Method: (§1) The effect of the compounds described herein on tumor cells was determined by the assay described by Latham et al., Oncogene 12:827-837 (1996). Tumor cells K562 (chronic myelogenous leukemia; leukemia cell line +ve for Bcr-Abl) or DU145 (prostate cancer) were plated in 12-well dishes at a cell density of 2.5×10^4 cells per well. The plated cells were treated 24 h. later with a DMSO solution of a compound as described herein at multiple concentrations ranging from 0.01 μM to 100 μM. The plates were examined 96 h. later under an inverted microscope, Olympus CK-2 using a 10× objective, and compound activity was noted by physical observation. When necessary, the total number of viable cells was determined by trypsinizing the wells and counting the number of viable cells, as determined by trypan blue exclusion, using a hemacytometer.

[2] = test system: DU145; assay: Cytotoxicity on DU145 cancer cell line; type: cell-based; settings: Homo sapiens, DU-145; DU145 prostate cancer; 96 h; 0.01-100 μM
Method: as §1

[3] = target: T1, AKT1 (Homo sapiens, UniProt P31749); assay: Kinase inhibition assay; type: biochemical; settings: 10 μM ATP; 5-dose IC50 mode
T1 construct: purchased Reaction Biology Corporation
T1 sequence (P31749 whole entry): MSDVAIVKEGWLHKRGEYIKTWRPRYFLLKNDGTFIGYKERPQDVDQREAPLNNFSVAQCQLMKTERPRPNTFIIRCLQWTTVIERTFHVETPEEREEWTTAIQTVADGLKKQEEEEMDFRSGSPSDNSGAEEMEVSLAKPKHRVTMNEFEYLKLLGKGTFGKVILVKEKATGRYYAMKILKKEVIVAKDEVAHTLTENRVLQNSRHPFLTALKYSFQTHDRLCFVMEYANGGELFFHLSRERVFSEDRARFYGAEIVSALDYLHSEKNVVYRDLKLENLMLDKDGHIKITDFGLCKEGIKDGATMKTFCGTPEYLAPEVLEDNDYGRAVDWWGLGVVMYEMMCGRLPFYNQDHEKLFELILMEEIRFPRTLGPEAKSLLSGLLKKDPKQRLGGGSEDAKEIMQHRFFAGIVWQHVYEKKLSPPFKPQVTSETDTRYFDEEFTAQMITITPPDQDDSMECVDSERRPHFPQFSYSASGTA
Method: (§2) Kinase assays were performed at Reaction Biology Corporation. To a freshly prepared buffer solution was added the target kinase at a concentration of […]. The contents were mixed gently, and then compound 8h dissolved in DMSO was added to the reaction mixture in the appropriate concentration. The mixture was incubated at room temperature for 30 min. prior to addition of ATP to initiate the reaction. Compound 8h was tested in a 5-dose IC50 mode with 10-fold serial dilutions starting at 10 μM. For each of the kinases, a control compound in a 10-dose IC50 mode with 3-fold serial dilutions starting at 20 μM. The control compounds were GW5074 (3-(3,5-dibromo-4-hydroxy-benzylidene)-5-iodo-1,3-dihydro-indol-2-one) for BRAF, CK2a and RAF1, D4476 (4-[4-(2,3-dihydro-1,4-benzodioxin-6-yl)-5-(2-pyridinyl)-1H-imidazol-2-yl]benzamide) for CK1d; Wee1 inhibitor (4-(2-chlorophenyl)-9-hydroxypyrrolo[3,4-c]carbazole-1,3-(2H,6H)-dione) for WEE1 and saturosporine for other kinases. Reaction was carried out at 10 μM ATP concentration.

[4] = target: T2, ALK (Homo sapiens, UniProt Q9UM73); assay: Kinase inhibition assay; type: biochemical; settings: 10 μM ATP; 5-dose IC50 mode
T2 construct: purchased Reaction Biology Corporation
T2 sequence (Q9UM73 19-1620): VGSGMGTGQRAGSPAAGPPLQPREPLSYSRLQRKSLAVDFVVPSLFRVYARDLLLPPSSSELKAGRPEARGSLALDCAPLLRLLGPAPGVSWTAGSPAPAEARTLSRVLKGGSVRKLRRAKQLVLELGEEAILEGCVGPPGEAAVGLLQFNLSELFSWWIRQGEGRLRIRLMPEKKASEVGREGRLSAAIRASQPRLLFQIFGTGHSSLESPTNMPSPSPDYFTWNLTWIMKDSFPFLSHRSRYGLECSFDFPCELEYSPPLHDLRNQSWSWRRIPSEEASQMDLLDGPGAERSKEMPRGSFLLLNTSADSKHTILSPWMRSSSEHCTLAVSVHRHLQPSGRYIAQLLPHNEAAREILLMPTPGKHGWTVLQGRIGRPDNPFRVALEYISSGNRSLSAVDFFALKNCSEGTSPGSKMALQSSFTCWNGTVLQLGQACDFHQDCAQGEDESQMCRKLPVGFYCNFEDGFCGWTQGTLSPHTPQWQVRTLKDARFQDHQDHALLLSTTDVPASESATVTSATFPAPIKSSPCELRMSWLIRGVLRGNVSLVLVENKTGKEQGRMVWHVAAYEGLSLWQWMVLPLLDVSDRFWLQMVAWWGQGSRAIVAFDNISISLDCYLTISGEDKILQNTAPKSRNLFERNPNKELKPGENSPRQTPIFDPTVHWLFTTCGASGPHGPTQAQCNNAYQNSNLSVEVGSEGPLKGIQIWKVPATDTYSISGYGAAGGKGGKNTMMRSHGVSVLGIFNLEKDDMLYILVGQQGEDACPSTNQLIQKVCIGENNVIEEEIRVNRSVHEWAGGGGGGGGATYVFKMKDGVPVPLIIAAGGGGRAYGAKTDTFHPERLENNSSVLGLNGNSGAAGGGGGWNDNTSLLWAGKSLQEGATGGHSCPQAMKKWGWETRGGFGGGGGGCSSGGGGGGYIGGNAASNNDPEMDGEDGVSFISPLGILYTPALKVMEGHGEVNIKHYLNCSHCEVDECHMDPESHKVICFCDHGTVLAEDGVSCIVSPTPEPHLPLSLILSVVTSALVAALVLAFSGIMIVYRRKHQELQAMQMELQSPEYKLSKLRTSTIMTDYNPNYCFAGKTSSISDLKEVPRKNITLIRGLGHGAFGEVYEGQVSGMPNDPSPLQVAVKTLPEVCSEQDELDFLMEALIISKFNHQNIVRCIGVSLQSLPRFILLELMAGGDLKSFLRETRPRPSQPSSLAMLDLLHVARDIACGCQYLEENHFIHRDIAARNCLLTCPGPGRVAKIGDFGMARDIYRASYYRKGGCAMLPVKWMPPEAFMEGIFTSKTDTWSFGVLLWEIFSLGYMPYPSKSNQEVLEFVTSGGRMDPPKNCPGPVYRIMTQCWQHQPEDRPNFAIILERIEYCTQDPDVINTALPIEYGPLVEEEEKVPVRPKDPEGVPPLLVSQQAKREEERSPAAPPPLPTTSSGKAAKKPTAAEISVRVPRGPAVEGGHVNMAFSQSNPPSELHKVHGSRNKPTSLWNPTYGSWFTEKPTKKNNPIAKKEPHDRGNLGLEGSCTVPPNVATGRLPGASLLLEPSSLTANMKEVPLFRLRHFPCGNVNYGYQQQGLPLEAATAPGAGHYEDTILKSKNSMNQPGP
Method: as §2

[5] = target: T3, ARK5/NUAK1 (Homo sapiens, UniProt O60285); assay: Kinase inhibition assay; type: biochemical; settings: 10 μM ATP; 5-dose IC50 mode
T3 construct: purchased Reaction Biology Corporation
Method: as §2

[6] = target: T4, Aurora A (Homo sapiens, UniProt O14965); assay: Kinase inhibition assay; type: biochemical; settings: 10 μM ATP; 5-dose IC50 mode
T4 construct: purchased Reaction Biology Corporation
T4 sequence (O14965 whole entry): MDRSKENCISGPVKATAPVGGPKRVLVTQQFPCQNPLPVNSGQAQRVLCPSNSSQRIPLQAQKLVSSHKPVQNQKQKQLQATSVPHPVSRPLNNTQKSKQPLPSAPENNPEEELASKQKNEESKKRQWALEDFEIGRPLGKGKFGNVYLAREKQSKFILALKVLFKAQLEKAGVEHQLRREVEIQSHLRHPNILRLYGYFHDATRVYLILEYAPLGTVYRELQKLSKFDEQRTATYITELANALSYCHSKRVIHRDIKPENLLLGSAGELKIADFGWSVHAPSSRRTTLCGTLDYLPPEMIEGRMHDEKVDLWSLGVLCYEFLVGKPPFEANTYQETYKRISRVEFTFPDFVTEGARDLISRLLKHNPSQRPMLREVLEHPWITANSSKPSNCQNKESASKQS
Method: as §2

[7] = target: T5, CDK5/p35 (Homo sapiens, UniProt Q00535); assay: Kinase inhibition assay; type: biochemical; settings: 10 μM ATP; 5-dose IC50 mode
T5 construct: purchased Reaction Biology Corporation
T5 sequence (Q00535 whole entry): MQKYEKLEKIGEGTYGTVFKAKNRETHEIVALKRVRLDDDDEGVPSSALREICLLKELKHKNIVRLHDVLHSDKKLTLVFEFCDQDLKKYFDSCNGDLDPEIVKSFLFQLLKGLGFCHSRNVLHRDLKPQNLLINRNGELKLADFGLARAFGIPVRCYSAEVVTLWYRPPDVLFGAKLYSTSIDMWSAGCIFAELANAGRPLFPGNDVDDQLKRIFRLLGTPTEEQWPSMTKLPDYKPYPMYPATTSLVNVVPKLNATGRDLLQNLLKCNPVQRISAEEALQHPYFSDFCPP
T5 sequence (Q15078 2-307 partner limits assumed): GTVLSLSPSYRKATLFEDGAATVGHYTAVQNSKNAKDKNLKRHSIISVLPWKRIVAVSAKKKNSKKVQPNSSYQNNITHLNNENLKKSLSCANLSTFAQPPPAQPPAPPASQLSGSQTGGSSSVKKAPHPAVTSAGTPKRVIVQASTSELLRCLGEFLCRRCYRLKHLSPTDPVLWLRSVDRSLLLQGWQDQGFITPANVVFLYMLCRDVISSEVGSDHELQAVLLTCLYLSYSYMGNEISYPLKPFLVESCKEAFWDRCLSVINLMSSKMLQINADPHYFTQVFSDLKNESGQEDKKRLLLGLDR
Method: as §2

[8] = target: T6, CDK6/cyclin D1 (Homo sapiens, UniProt Q00534); assay: Kinase inhibition assay; type: biochemical; settings: 10 μM ATP; 5-dose IC50 mode
T6 construct: purchased Reaction Biology Corporation
T6 sequence (Q00534 whole entry): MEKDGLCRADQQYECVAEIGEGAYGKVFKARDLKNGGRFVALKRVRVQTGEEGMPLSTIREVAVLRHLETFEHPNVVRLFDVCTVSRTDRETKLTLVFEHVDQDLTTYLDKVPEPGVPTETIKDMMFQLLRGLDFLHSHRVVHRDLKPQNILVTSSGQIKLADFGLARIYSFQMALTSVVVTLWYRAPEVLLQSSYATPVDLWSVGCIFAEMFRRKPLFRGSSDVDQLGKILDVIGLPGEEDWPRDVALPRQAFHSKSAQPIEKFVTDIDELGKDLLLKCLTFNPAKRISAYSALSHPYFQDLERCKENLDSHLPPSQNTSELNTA
T6 sequence (P24385 whole entry partner): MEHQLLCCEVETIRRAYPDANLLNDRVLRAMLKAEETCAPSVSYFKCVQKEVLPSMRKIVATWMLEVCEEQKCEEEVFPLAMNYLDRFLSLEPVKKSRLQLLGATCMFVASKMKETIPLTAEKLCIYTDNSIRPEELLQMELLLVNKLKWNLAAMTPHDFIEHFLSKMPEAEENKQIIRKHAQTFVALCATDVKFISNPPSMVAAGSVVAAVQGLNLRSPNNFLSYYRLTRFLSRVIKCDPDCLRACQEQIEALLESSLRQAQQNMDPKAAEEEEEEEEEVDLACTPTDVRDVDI
Method: as §2

[9] = target: T7, CHK1 (Homo sapiens, UniProt O14757); assay: Kinase inhibition assay; type: biochemical; settings: 10 μM ATP; 5-dose IC50 mode
T7 construct: purchased Reaction Biology Corporation
Method: as §2

[10] = target: T8, CK2a2 (Homo sapiens, UniProt P19784); assay: Kinase inhibition assay; type: biochemical; settings: 10 μM ATP; 5-dose IC50 mode
T8 construct: purchased Reaction Biology Corporation
Method: as §2

[11] = target: T9, EGFR (Homo sapiens, UniProt P00533); assay: Kinase inhibition assay; type: biochemical; settings: 10 μM ATP; 5-dose IC50 mode
T9 construct: purchased Reaction Biology Corporation
Method: as §2

[12] = target: T10, MEK1 (Homo sapiens, UniProt Q02750); assay: Kinase inhibition assay; type: biochemical; settings: 10 μM ATP; 5-dose IC50 mode
T10 construct: purchased Reaction Biology Corporation
T10 sequence (Q02750 whole entry): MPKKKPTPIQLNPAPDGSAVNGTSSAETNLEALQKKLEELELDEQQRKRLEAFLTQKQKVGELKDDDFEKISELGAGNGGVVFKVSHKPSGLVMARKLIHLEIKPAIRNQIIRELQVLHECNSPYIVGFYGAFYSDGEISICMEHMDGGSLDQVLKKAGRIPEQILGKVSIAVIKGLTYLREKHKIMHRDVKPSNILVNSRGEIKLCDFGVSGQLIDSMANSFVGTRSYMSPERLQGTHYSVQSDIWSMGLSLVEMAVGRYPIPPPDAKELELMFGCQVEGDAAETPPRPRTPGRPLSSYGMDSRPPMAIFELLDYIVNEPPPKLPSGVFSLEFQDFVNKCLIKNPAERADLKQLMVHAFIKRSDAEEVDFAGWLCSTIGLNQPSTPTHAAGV
Method: as §2

[13] = target: T11, MEK2 (Homo sapiens, UniProt P36507); assay: Kinase inhibition assay; type: biochemical; settings: 10 μM ATP; 5-dose IC50 mode
T11 construct: purchased Reaction Biology Corporation
Method: as §2

[14] = target: T12, PIM2 (Homo sapiens, UniProt Q9P1W9); assay: Kinase inhibition assay; type: biochemical; settings: 10 μM ATP; 5-dose IC50 mode
T12 construct: purchased Reaction Biology Corporation
Method: as §2

[15] = target: T13, PIM3 (Homo sapiens, UniProt Q86V86); assay: Kinase inhibition assay; type: biochemical; settings: 10 μM ATP; 5-dose IC50 mode
T13 construct: purchased Reaction Biology Corporation
Method: as §2

[16] = target: T14, PLK1 (Homo sapiens, UniProt P53350); assay: Kinase inhibition assay; type: biochemical; settings: 10 μM ATP; 5-dose IC50 mode
T14 construct: purchased Reaction Biology Corporation
Method: as §2

[17] = target: T15, RET (Homo sapiens, UniProt P07949); assay: Kinase inhibition assay; type: biochemical; settings: 10 μM ATP; 5-dose IC50 mode
T15 construct: purchased Reaction Biology Corporation
Method: as §2

[18] = target: T16, RSK4 (Homo sapiens, UniProt Q9UK32); assay: Kinase inhibition assay; type: biochemical; settings: 10 μM ATP; 5-dose IC50 mode
T16 construct: purchased Reaction Biology Corporation
T16 sequence (Q9UK32 whole entry): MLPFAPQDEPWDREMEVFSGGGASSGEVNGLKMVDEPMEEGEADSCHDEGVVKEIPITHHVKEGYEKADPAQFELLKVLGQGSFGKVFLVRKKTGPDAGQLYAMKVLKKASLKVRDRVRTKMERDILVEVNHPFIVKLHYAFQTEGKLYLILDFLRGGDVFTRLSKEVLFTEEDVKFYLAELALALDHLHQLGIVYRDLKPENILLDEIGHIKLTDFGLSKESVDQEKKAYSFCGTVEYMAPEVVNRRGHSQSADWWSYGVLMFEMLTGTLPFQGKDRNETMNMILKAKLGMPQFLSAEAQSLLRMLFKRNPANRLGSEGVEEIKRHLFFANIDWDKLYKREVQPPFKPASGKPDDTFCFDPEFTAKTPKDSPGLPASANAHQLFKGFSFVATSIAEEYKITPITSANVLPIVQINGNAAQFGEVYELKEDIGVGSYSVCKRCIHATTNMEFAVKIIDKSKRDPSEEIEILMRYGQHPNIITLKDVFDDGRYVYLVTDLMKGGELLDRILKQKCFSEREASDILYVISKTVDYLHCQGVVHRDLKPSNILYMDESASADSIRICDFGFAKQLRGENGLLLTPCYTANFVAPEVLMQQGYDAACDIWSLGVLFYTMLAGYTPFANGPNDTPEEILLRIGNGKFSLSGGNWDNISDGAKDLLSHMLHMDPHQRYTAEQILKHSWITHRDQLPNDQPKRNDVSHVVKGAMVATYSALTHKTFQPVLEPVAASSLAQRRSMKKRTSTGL
Method: as §2

[19] = target: T17, c-Kit (Homo sapiens, UniProt P10721); assay: Kinase inhibition assay; type: biochemical; settings: 10 μM ATP; 5-dose IC50 mode
T17 construct: purchased Reaction Biology Corporation
Method: as §2

[20] = target: T18, c-Src (Homo sapiens, UniProt P12931); assay: Kinase inhibition assay; type: biochemical; settings: 10 μM ATP; 5-dose IC50 mode
T18 construct: purchased Reaction Biology Corporation
Method: as §2

[21] = target: T19, ABL1 (E255K) (Homo sapiens, UniProt P00519, E255K); assay: Inhibition of ABL mutants, kinase assay; type: biochemical; settings: 10 μM ATP; 5-dose IC50 mode
T19 construct: purchased Reaction Biology Corporation
Method: (§3) Kinase assays were performed at Reaction Biology Corporation. To a freshly prepared buffer solution was added the target kinase at a concentration of […]. The contents were mixed gently, and then compound (8h) dissolved in DMSO was added to the reaction mixture in the appropriate concentration. The mixture was incubated at room temperature for 30 min. prior to addition of ATP to initiate the reaction. Compound (8h) was tested in a 5-dose IC50 mode with 10-fold serial dilutions starting at 10 μM. Staurosporine was used as a control compound in a 10-dose IC50 mode with 3-fold serial dilutions starting at 20 μM. Reaction was carried out at 10 μM ATP concentration.

[22] = target: T20, ABL1 (G250E) (Homo sapiens, UniProt P00519, G250E); assay: Inhibition of ABL mutants, kinase assay; type: biochemical; settings: 10 μM ATP; 5-dose IC50 mode
T20 construct: purchased Reaction Biology Corporation
Method: as §3

[23] = target: T21, ABL1 (H396P) (Homo sapiens, UniProt P00519, H396P); assay: Inhibition of ABL mutants, kinase assay; type: biochemical; settings: 10 μM ATP; 5-dose IC50 mode
T21 construct: purchased Reaction Biology Corporation
Method: as §3

[24] = target: T22, ABL1 (M351T) (Homo sapiens, UniProt P00519, M351T); assay: Inhibition of ABL mutants, kinase assay; type: biochemical; settings: 10 μM ATP; 5-dose IC50 mode
T22 construct: purchased Reaction Biology Corporation
Method: as §3

[25] = target: T23, ABL1 (Q252H) (Homo sapiens, UniProt P00519, Q252H); assay: Inhibition of ABL mutants, kinase assay; type: biochemical; settings: 10 μM ATP; 5-dose IC50 mode
T23 construct: purchased Reaction Biology Corporation
Method: as §3

[26] = target: T24, ABL1 (T315I) (Homo sapiens, UniProt P00519, T315I); assay: Inhibition of ABL mutants, kinase assay; type: biochemical; settings: 10 μM ATP; 5-dose IC50 mode
T24 construct: purchased Reaction Biology Corporation
Method: as §3

[27] = target: T25, ABL1 (Y253F) (Homo sapiens, UniProt P00519, Y253F); assay: Inhibition of ABL mutants, kinase assay; type: biochemical; settings: 10 μM ATP; 5-dose IC50 mode
T25 construct: purchased Reaction Biology Corporation
Method: as §3

SMILES: CN1CCN(c2ccc(Nc3ncc(/C=C/C#N)c(NC4CCCC4)n3)cc2)CC1 [Compound 8h, 3-{4-Cyclopentylamino-2-[4-(4-methylpiperazin-1-yl)phenylamino]pyrimidin-5-yl}acrylonitrile]
- IC50 [1]: < 1000 nM
- IC50 [2]: < 1000 nM
- IC50 [3]: > 1000 nM
- IC50 [4]: < 100 nM
- IC50 [5]: < 100 nM
- IC50 [6]: 100 to 1000 nM
- IC50 [7]: > 10000 nM
- IC50 [8]: 100 to 1000 nM
- IC50 [9]: 100 to 1000 nM
- IC50 [10]: 100 to 1000 nM
- IC50 [11]: 100 to 1000 nM
- IC50 [12]: > 1000 nM
- IC50 [13]: > 1000 nM
- IC50 [14]: > 1000 nM
- IC50 [15]: > 1000 nM
- IC50 [16]: 100 to 1000 nM
- IC50 [17]: < 100 nM
- IC50 [18]: < 100 nM
- IC50 [19]: 100 to 1000 nM
- IC50 [20]: < 100 nM
- IC50 [21]: < 100 nM
- IC50 [22]: < 100 nM
- IC50 [23]: < 100 nM
- IC50 [24]: < 100 nM
- IC50 [25]: < 100 nM
- IC50 [26]: < 100 nM
- IC50 [27]: < 100 nM
